# Laboratory results taken from patent US7517911B2, “3,4,5-trimethoxy phenyl-based ester compound and preparation method thereof and whitening cosmetic composition containing the same” (Amorepacific Corporation, priority 2001, dated 2009).
# What was measured:
# human skin [1] = test: Whitening effect on the human skin (UVB-induced pigmentation, Chromameter); assay type: in vivo; conditions: applied for 10 weeks after UVB, 12 male volunteers
# From the text: The brachia of twelve (12) healthy volunteers (males) were attached with opaque tape having 1.5 cm diameter holes, and then irradiated with UVB (ultraviolet rays B) in 1.5˜2 times the intensity of the minimum amount to form erythema for each volunteer, to induce pigmentation. After irradiating the UVB, 1% diluted solutions of the ester compounds of Examples 1˜6 (solvent was 1,3-butyleneglycol:ethanol=7:3) were applied on the above treated brachia for ten (10) weeks (the above 1% diluted solution was not applied on one brachium), and the colors of the skins thereof were measured by Chromameter CR2002 (manufactured by Minolta; Japan) per every one week. The difference of “L”, that is, “Δ L”, the amount of the increase of brightness of skin compared with those not applied with diluted solution, was measured. For reference, measurements for the cases that 3% kojic acid and vehicle (solvent) were applied were performed.
# guinea pig skin = test: Test for radiation toxicity (UVA); assay type: in vivo
# Experimental: The hairs on the backs of ten (10) guinea pigs were removed. After fixing the pigs, the back was divided into six (6) areas each having 2.0 cm×2.0 cm area, three (3) areas on the left side and three (3) on the right side. Right side areas were control areas prevented from being radiated, and left side areas were radiation areas. 1% (w/v) diluted solutions of ester compounds of Examples 1˜6 were applied thereto with an equal amount of 50 μl respectively, while using vehicle (1,3-butyleneglycol:ethanol=7:3) as a negative control, and using 0.1% 8-MOP(methoxypsoralene) as a positive control. After 30 minutes later, left sides of the back of the pig was shielded from light by aluminum foil, and UVA(320˜380 nm) was radiated from 10 cm distant with an final energy of 15J/cm^2 by using ultraviolet radiation device (waldmann). The skin of the guinea pig was observed after 24, 48 and 72 hours later. The irritation was graded as shown in table 5 with 0˜4 grades according to the intensity of the erythema and edema, and the sum was calculated. In the evaluation, the maximum value of the measurement that performed after 24, 48 and 72 hours later was chosen, and then the Irritation Index of an animal skin was calculated according to mathematical formula 1, and finally, the Radiation Toxicity Index was calculated according to mathematical Formula 2. Irritation Index of an animal skin=(Σ maximum value of erythema index+Σ maximum value of edema index)/number of animals [Mathematical Formula 1] Radiation Toxicity Index=(Irritation Index of an animal skin in an area of UV radiation)−(Irritation Index of an animal skin in an area UV non-radiation) [Mathematical Formula 2]
# human skin [2] = test: Test for application to human skin (patch test, CTFA Guideline); assay type: in vivo; conditions: for The number of volunteers having reaction, mark +: + = Intense erythema; for The number of volunteers having reaction, mark + / The number of volunteers having reaction, mark ++ / The number of volunteers having reaction, mark +++ / The number of volunteers having reaction, mark ± / The number of volunteers having reaction, mark −: 1% in patch base, n = 30; for The number of volunteers having reaction, mark ++: ++ = Intense erythema with edema; for The number of volunteers having reaction, mark +++: +++ = Intense erythema with edema &vesicle; for The number of volunteers having reaction, mark ±: ± = Mild erythema; for The number of volunteers having reaction, mark −: − = No visible reactions; for Average reaction (n = 30): {(grade × number of volunteers) × 100}/{maximum grade × total volunteers × number of test}, non-irritation standard value 1.0
# Experimental: Each of the ester compounds of Examples 1˜6 were dissolved in a patch base shown in Table 8 to be 1% concentration respectively, to prepare test samples. 20 μl of each test sample was dropped in a Finn Chamber to make a patch, and the patch was attached to antebrachial skin (test region) and fixed with micro tape. The patch was attached for 24 hours, and after removing the patch, the test region was checked with marking pen, and then the region was observed after 1 and 24 hours.
# Mel-Ab cells = test: Melanin-inhibiting effect in the melanocytes (Dooley method); assay type: cell-based, C57BL/6; conditions: 10 ppm in culture medium, absorbance at 400 nm, compared with cells cultured without compound
# rabbit skin = test: Test for skin irritation on animals (Draize P.I.I.); assay type: in vivo, rabbits; conditions: 1% diluted solution, 0.5 ml; for P.I.I.: measured 24 and 72 hours after application
# Experimental: The hairs on the backs of six (6) healthy male rabbits were removed. After making areas of 2.5 cm×2.5 cm on the left and right sides of the back of each rabbit, nothing was applied on the left area of the back as control area, and 1% diluted solutions of the ester compounds of Examples 1˜6 (solvent was 1,3-butyleneglycol:ethanol=7:3) were applied on the right area of the back of the rabbits with an amount of 0.5 ml, one compound for each rabbit respectively. Irritations such as erythema, rash or edema were measured 24 hours and 72 hours after the application. In addition, the degree of irritation was determined according to the conventional, “P.I.I.” (Primary Irritation Index) of Draize, and the results are shown in Table 6.
# [3] = 1% diluted solution (1,3-butyleneglycol:ethanol=7:3)
# [4] = 1% (w/v) solution 50 μl, UVA 15J/cm^2, observed 24, 48 and 72 hours
# [5] = 1% (w/v) solution, UVA 15J/cm^2
Compound,Increase of brightness of skin (Δ L) (human skin [1]; [3]),Determination (radiation toxicity) (guinea pig skin; in vivo),Radiation Toxicity Index (guinea pig skin; in vivo),"The number of volunteers having reaction, mark + (human skin [2]; 24 hours later)","The number of volunteers having reaction, mark ++ (human skin [2]; 24 hours later)","The number of volunteers having reaction, mark +++ (human skin [2]; 24 hours later)","The number of volunteers having reaction, mark ± (human skin [2]; 24 hours later)","The number of volunteers having reaction, mark − (human skin [2]; 24 hours later)","The number of volunteers having reaction, mark + (human skin [2]; 48 hours later)","The number of volunteers having reaction, mark ++ (human skin [2]; 48 hours later)","The number of volunteers having reaction, mark +++ (human skin [2]; 48 hours later)","The number of volunteers having reaction, mark ± (human skin [2]; 48 hours later)","The number of volunteers having reaction, mark − (human skin [2]; 48 hours later)",Average reaction (n = 30) (human skin [2]),Melanin generation ratio (%) (Mel-Ab cells),Determination (skin irritation) (rabbit skin),P.I.I. (rabbit skin),Radiation Toxicity Index (guinea pig skin; [4]),Determination (radiation toxicity) (guinea pig skin; [5]),Increase of brightness of skin (Δ L) (human skin [1]; 3% kojic acid)
"2-methyl-5-(methylethylphenyl)-2-(3,4,5-trimethoxyphenyl)acetate [Example 2]",1.51 ± 0.13,Radiation Non-Toxic,0,0,0,0,0,30,0,0,0,1,29,0.42,51.2%,No irritation,0.345,,,
"5-methyl-2-(methylethyl)phenyl-3-(3,4,5-trimethoxyphenyl)propanoate [Example 5]",1.40 ± 0.12,Radiation Non-Toxic,0,0,0,0,0,30,0,0,0,0,30,0.00,50.0%,No irritation,0.375,,,
"COc1cc(C=CC(=O)O)cc(OC)c1OC [3,4,5-trimethoxy cinnamic acid, reference compound]",,,,,,,,,,,,,,,96.3%,,,,,
"COc1cc(CCC(=O)O)cc(OC)c1OC [3,4,5-trimethoxy hydrocinnamic acid, reference compound]",,,,,,,,,,,,,,,92.5%,,,,,
"COc1cc(CC(=O)O)cc(OC)c1OC [3,4,5-trimethoxy phenylacetic acid, reference compound]",,,,,,,,,,,,,,,95.8%,,,,,
"Cc1ccc(C(C)C)cc1O [Carvacrol, carvacrol, reference compound]",,,,,,,,,,,,,,,91.5%,,,,,
COc1cc(CC(=O)Oc2cc(C)ccc2C(C)C)cc(OC)c1OC [Example 1],1.71 ± 0.25,,,0,0,0,2,28,0,0,0,0,30,0.83,47.8%,No irritation,0.375,0,Radiation Non-Toxic,
"COc1cc(/C=C/C(=O)Oc2cc(C)ccc2C(C)C)cc(OC)c1OC [Example 3, 5-methyl-2-(methylethyl)phenyl(2E)-3-(3,4,5-trimethoxyphenyl)-2-propanoate]",1.38 ± 0.11,,,0,0,0,0,30,0,0,0,0,30,0.00,45.6%,No irritation,0.375,0,Radiation Non-Toxic,
"COc1cc(/C=C/C(=O)Oc2cc(C(C)C)ccc2C)cc(OC)c1OC [Example 4, 2-methyl-5-(methylethyl)phenyl(2E)-3-(3,4,5-trimethoxyphenyl)-2-propanoate]",1.22 ± 0.18,,,0,0,0,1,29,0,0,0,0,30,0.42,58.9%,No irritation,0.350,0,Radiation Non-Toxic,
"COc1cc(CCC(=O)Oc2cc(C(C)C)ccc2C)cc(OC)c1OC [Example 6, 2-methyl-5-(methylethyl)phenyl-3-(3,4,5-trimethoxyphenyl)propanoate]",1.49 ± 0.11,,,0,0,0,0,30,0,0,0,0,30,0.00,48.1%,No irritation,0.315,0,Radiation Non-Toxic,
"O=c1cc(CO)occ1O [Kojic acid, kojic acid, reference compound]",,,,,,,,,,,,,,,88.0%,,,,,0.99 ± 0.11
"Cc1ccc(C(C)C)c(O)c1 [Thymol, thymol, reference compound]",,,,,,,,,,,,,,,94.5%,,,,,
